{"source": "patent US11780834B2", "about": "“Solid forms of 3-((1R,3R)-1-(2,6-difluoro-4-((1-(3-fluoropropyl)azetidin-3-yl)amino)phenyl)-3-methyl-1,3,4,9-tetrahydro-2H-pyrido[3,4-b]indol-2-yl)-2,2-difluoropropan-1-ol and processes for preparing fused tricyclic compounds comprising a substituted phenyl or pyridinyl moiety, including methods …” (Hoffmann-La Roche Inc., priority 2018, dated 2023)", "key": {"[1]": {"assay": "Stress stability of solid forms at elevated temperature and humidity (XRPD, impurities)", "type": "physicochemical", "details": "40° C./75% RH, one month, tartrate", "procedure": "Preliminary stress stability analysis of Compound B Form B. The XRPD patterns of Compound A salts (fumarate and tartrate) exposed to 40° C./75% RH for one month under open conditions.\nXRPD of one-month stability sample."}, "ER": {"target": "ER (Homo sapiens, UniProt P03372)", "sequence (P03372 whole entry)": "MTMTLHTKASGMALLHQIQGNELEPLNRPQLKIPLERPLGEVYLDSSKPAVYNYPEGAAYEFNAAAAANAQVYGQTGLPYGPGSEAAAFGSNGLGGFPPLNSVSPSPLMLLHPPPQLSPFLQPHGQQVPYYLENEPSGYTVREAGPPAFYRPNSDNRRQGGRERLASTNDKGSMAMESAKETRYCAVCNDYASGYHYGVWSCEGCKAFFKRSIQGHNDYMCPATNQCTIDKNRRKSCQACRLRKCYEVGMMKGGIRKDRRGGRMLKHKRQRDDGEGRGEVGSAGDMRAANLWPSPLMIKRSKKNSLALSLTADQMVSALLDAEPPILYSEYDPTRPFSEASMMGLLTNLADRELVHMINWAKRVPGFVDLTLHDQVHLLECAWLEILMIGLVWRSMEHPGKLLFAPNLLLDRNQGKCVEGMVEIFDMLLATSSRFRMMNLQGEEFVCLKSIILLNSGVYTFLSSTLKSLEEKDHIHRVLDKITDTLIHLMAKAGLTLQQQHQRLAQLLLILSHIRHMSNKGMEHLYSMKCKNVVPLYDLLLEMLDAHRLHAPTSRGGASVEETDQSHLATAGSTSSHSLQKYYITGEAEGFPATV", "assay": "ER degradation and ER pathway suppression", "type": "cell-based", "details": "compared to GDC-0927 and GDC-0810"}, "[2]": {"assay": "Pharmacokinetics after single IV administration", "type": "in vivo, and monkeys", "details": "rats, dogs, monkeys"}, "[3]": {"assay": "Oral bioavailability in monkeys", "details": "monkey, in vivo"}}, "note": "Counter-ions that a name gives are not always drawn."}
{"smiles": "C[C@@H]1Cc2c([nH]c3ccccc23)[C@@H](c2c(F)cc(NC3CN(CCCF)C3)cc2F)N1CC(F)(F)CO", "note": "[Compound B, 3-((1R,3R)-1-(2,6-difluoro-4-((1-(3-fluoropropyl)azetidin-3-yl)amino)phenyl)-3-methyl-1,3,4,9-tetrahydro-2H-pyrido[3,4-b]indol-2-yl)-2,2-difluoropropan-1-ol tartrate]", "values": [{"measurement": "Solid form (XRPD) after stress stability", "setting": "[1]; open", "value": "did not change"}, {"measurement": "Impurities after stress stability", "setting": "[1]; listed as tartrate salt", "value": "lacked the impurities"}, {"measurement": "ER degradation & ER pathway suppression", "setting": "ER", "value": "superior"}, {"measurement": "half-life", "setting": "[2]; rat, dog, monkey, in vivo, read-out: Terminal elimination half-life", "value": "7 to 24", "unit": "h"}, {"measurement": "Clearance", "setting": "[2]", "value": "low to moderate"}, {"measurement": "Volume of distribution", "setting": "[2]", "value": "large"}, {"measurement": "bioavailability", "setting": "[3]", "value": 17, "unit": "%"}]}
